What was measured:
Format in all cases: cell-based
Conditions in all cases: 7 days of treatment
[1] = system: HBG mRNA in human CD34+ HSC; assay: HBG mRNA level in human CD34+ HSC (qRT-PCR)
Experimental: (§1) Human cord blood CD34+ hematopoietic stem cells (HSC) were first expanded in the expansion medium (StemSpan SFEM II+StemSpan CD34 Expansion Supplement) to achieve the desired number of cells, and then differentiated in differentiation medium (StemSpan SFEM II+StemSpan Erythroid Expansion Supplement (100×)) for three days without drug treatment. Various concentrations of Cpd. 73 were added on the fourth day of differentiation and further incubated with the cells for another 7 days. 33 mM Hydroxyurea was used as the control.
After 7 days of treatment, the cells were collected. Total RNA was isolated using Trizol LS reagent (Invitrogen-10296028) and 1 μg RNA of each sample was reverse transcribed into cDNA using High Capacity cDNA Reverse Transcription Kit (AB (Applied Biosystems)-4374966), according to the manufacturer's instructions. Quantitative RT-PCR (qRT-PCR) was performed using an Applied Biosystems QuantStudio 7 Flex system with the primer pairs shown as below: hHBG-mRNA-F1 (5′-[…]-3′) and hHBG-mRNA-R1 (5′-TCACTCAGCTGGGCAAAGG-3′). […] The HBG mRNA level were 1.09-, 2.49-, 7.84-, 9.69- and 12.2-folds of the vehicle group when the cells were treated with 0.01 μM, 0.03 μM, 0.1 μM, 0.3 μM and 1.0 μM Cpd. 73 respectively. […] 73 which increased HBG mRNA by 12.2 folds (p<0.0001, vs. vehicle). The HBG mRNA level of cells treated with 33 mM Hydroxyurea, an approved medicine for SCD, was 6.46-folds of the vehicle group.

HbF in human CD34+ HSC = assay: HbF concentration in human CD34+ HSC by ELISA; design: HbF concentration, folds of the vehicle group: dose or concentration left out as unconfirmed
Experimental: as §1
After 7 days of treatment, the cells were collected and lysed. The concentration of HbF in the cell lysate was determined using a Human Fetal Hemoglobin (HBF) ELISA Kit (MyBioSource, MBS2024474). […] The cellular HbF concentration were 1.27-, 1.39-, 1.52-, 1.58- and 1.69-folds of the vehicle group when the cells were treated with 0.01 μM, 0.03 μM, 0.1 μM, 0.3 μM and 1.0 μM Cpd. 73 respectively. […] 73 where the cellular HbF concentration was 1.69-folds of the vehicle group (p<0.01). HbF concentration of cells treated with 33 mM Hydroxyurea was 1.18-folds of the vehicle group. Clinically, small increases of HbF concentration (1-5%) have the potential to provide clinical benefits to all SCD patients.

[2] = system: HbF+ cells in human CD34+ HSC; assay: HbF+ cell % in human CD34+ HSC by FACS
Experimental: as §1
After 7 days of treatment, the cells were collected and stained with PE-conjugated Mouse Anti-Human Fetal Hemoglobin (BD, 560041). The percentage of HbF+ cells were quantified by FACS. […] 73 respectively. […] 73 where HbF+ cell % was 2.58-folds of the vehicle group (p<0.0001). The % of HbF+ cells was 1.82-folds of the vehicle group when the cells were treated with 33 mM Hydroxyurea.

In the case of NC(=O)NO [Hydroxyurea, reference compound], the “HBG mRNA level, folds of the vehicle group” value [1] is reported as 6.46 folds, the “HbF concentration, folds of the vehicle group” value (HbF in human CD34+ HSC) is reported as 1.18 folds and the “% of HbF+ cells, folds of the vehicle group” value [2] is reported as 1.82 folds.

From patent US20240366611A1, “METHODS OF TREATING A DISEASE OR DISORDER” (Ascentage Pharma (Suzhou) Co., Ltd., priority 2021, published 2024)
